According to patent US8003668B2, “Amino-substituted 8-N-benzimidazoles and methods for their use in blood sugar disorders” (Sanofi-Aventis, priority 2005, dated 2011):

Target: T1, DPP-IV from porcine kidneys (Sus scrofa, UniProt P22411)
T1 construct: DPP-IV from porcine kidneys (Sigma, Munich); purchased Sigma, Munich; host or cells: porcine kidney (tissue-derived enzyme)
Assay: Measurement of the DPP-IV activity (fluorimetric, H-Ala-Pro-AFC substrate)
Assay type: biochemical
Conditions: inhibitor at 30 μm; H-Ala-Pro-AFC 15 μm; DPP-IV 1 mU/ml; Tris/HCl pH 7.4; room temperature
Procedure: The efficacy of the compounds was tested as follows: • Measurement of the DPP-IV Activity: • Material: • DPP-IV from porcine kidneys (Sigma, Munich) • H-Ala-Pro-AFC (Bachem, Weil am Rhein) • Test conditions: • DPP-IV (1 mU/ml, end concentration) • H-Ala-Pro-AFC (15 μm end concentration) in Tris/HCl (40 mM, pH 7.4), total volume 0.2 ml
The reaction was performed at room temperature for different periods (typically 10 minutes) and stopped at the end of the reaction by adding 20 μl of ZnCl2 (1 M). The conversion of H-Ala-Pro-AFC was determined fluorimetrically by measuring the emission at 535 nm on excitation at 405 nm. In the case of addition of inhibitors, the buffer volume added was adjusted such that a total volume of the test mixture of 200 μl was maintained.
% inhibition at a fixed concentration was calculated as follows: (1−enzyme activityinhibited reaction/enzyme activityuninhibited reaction)×100
IC50 values for inhibitors were determined by varying the inhibitor concentrations at the given substrate concentration of 15 μM. Ki and Km values were determined by corresponding variation of substrate and inhibitor concentration as described (Dixon, M. and Webb, E.C.(1979) Enzymes, third edition, pp. 47-206, Academic Press). […]

T1 sequence (P22411 whole entry): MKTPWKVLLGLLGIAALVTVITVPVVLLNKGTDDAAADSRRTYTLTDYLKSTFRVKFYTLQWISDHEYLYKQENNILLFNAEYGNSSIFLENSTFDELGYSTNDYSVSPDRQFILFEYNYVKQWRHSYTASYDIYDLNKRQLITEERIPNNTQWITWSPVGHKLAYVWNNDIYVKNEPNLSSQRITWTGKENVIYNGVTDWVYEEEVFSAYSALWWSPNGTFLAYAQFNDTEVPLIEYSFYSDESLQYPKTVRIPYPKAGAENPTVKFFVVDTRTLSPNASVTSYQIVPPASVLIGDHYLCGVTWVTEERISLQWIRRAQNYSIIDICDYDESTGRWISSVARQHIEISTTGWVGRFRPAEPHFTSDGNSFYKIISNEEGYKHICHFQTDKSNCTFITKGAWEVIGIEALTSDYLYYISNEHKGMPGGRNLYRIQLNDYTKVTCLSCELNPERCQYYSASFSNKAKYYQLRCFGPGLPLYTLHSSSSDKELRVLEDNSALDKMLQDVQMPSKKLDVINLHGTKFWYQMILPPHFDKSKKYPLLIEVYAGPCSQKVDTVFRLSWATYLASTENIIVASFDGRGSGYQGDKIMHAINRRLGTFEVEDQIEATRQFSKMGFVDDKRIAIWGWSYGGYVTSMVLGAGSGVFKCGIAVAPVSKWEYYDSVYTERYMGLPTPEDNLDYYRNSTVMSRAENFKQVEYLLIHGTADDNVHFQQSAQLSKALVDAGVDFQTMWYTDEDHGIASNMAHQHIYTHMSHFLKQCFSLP

In the case of `CC(C)=CCn1c(N2CCC[C@@H](N)C2)nc2ccc(NS(=O)(=O)c3ccccc3)cc21.O=C(O)C(F)(F)F` [Example 1, R-N-[2-(3-R-Aminopiperidin-1-yl)-1-(3-methylbut-2-enyl)-1H-benzimidazol-6-yl]-benzenesulfonamide trifluoroacetic acid salt], the “% inhibition at 30 μm” value is reported as 56%.
